“Also recorded” adds a separate entry of the source. No end group written: not given here.
Tests used:
Cyclooxygenase-2 (COX-2) = test: COX-2 expression (RT-PCR) in skin of topically treated mice; format: in vivo, SKH1 hairless mice; settings: for COX-2:GAPDH: 100 μM in 70:30 ethanol:propylene glycol, once daily for 2 weeks (M-F), skin RT-PCR
Procedure: SKH1 hairless mice, were purchased from Charles River (Kingston, N.Y.), and were housed in appropriately sized cages in an environmentally controlled room with a 12-hour light—12-hour dark photoperiod and supplied with food and water ad libitum. Mice were either untreated, or treated with LIGR or SLIGRL (From California Research Peptide Research Inc. Napa, Calif.), at 100 μM, in 70:30 ethanol: propylene glycol vehicle, once daily for 2 weeks (M-F, no treatment on weekends). Following ten days of treatment, mice were sacrificed and skin samples were processed for RNA extraction and RT-PCR. The treated skins were analyzed for the expression of Cyclooxygenase-2 (COX-2), a known inflammatory mediator. Total RNA (25 ng) from each sample was subjected to one step RT-PCR reaction using OneStep RT-PCR Kit (QIAGEN®, Valencia, Calif.) according to manufacturer's instructions. The reverse transcription was carried out for 30 minutes at 50° C. and a hot start of 15 minutes at 95° C. was then included to activate HotStarTaq™ DNA polymerase in the reaction mix. PCR Primers were synthesized by Integrated DNA Technologies (Coralville, Iowa). Each RT-PCR reaction contained 30 pmol of each primer of COX-2 or 10 pmol of each primer of GAPDH. Each PCR cycle consisted of denaturing for 50 seconds at 94° C., annealing for 1 minute at 58° C., elongation for 1 minute at 72° C. The PCR products were resolved by electrophoresis in 1% agarose gel and stained with ethidium bromide. Kodak Gel logic 100 imaging system was used to take gel pictures and analyze product band density.
The results of this study are shown in Table 5, as expressed in the ratio of COX-2 expression to the expression of the housekeeping gene GAPDH. […] This in vivo study further supports that LIGR is not a classic PAR-2 activator, and is not inducing pro-inflammatory mediators under physiological conditions.

[1] = test system: Human primary neonatal keratinocytes; test: Secretion of inflammatory mediators by primary keratinocytes (ELISA / Beadlyte); format: cell-based; settings: 50 μM, 24 hours; for Fold change in the secretion of inflammatory mediators: IL-6 / Fold change in the secretion of inflammatory mediators: IL-8 / Fold change in the secretion of inflammatory mediators: PGE2 / Fold change in the secretion of inflammatory mediators: PGF2α: cell media; for Fold change in the secretion of inflammatory mediators: IL-6 / Fold change in the secretion of inflammatory mediators: IL-8: Beadlyte; for Fold change in the secretion of inflammatory mediators: PGE2 / Fold change in the secretion of inflammatory mediators: PGF2α: ELISA
Procedure: Human primary neonatal keratinocytes were purchased from Cascade Biologics (Portland, Oreg.). Cells were cultured in Media 154 supplemented with human keratinocytes growth supplement (Cascade Biologics) and were maintained at <80% confluency. Cells were plated at 6×10^4 per well in 24 well plate and allowed to attach to the well overnight with 5% CO2. Cells were then treated with LIGR (50 μM), SLIGRL (50 μM), the control, scrambled peptide ISLLRG (SEQ.ID.NO.18) (50 μM) or left untreated. Each treatment was done in triplicates. 24 hours later, cell media were collected and examined for the expression and secretion of the inflammatory mediators PGE2, PGF2α, IL-8 and IL-6. PGE2 and PGF2α, using ELISA kits (Cayman Chemicals, Ann Arbor, Mich.) according to manufacturer's instructions. IL-8 and IL-6 levels were detected using Beadlyte Human Multi-cytokine Detection System (Upstate Cell Signaling Solutions, Lake Placid, N.Y.) according to manufacturer's instructions. The experiment was repeated 4 times with different lots of primary keratinocytes.

HaCaT cells = test: Intracellular Ca2+ mobilization (FLIPR) in HaCaT cells; format: cell-based; settings: for Intracellular calcium mobilization (in words): SLIGRL 4-40 μM, LIGR and scrambled peptide at concentrations as high as 800 μM
Procedure: HaCaT cells were seeded in a black-wall 96-well plate at about 20,000 cells/100 μl/well and grown overnight in culture medium prior to the experiment. On the day of the experiment, cells were loaded with 100 μl of Calcium Plus assay reagent component A (FLEXstation calcium Plus Assay Kit, Molecular Devices, Sunnyvale, Calif.) prepared in Hanks' Balanced Salt Solution (HBSS, Mediatech, Inc., Herndon, Va.) for 30 minutes according to the manufacturer's protocol. After loading the cells, SLIGRL, LIGR and ISSLRG (at 5× concentration in 50 μl) were added to all wells (final volume 250 μl/well), and intracellular Ca^2+ levels were subsequently assayed using the FLIPR system (Molecular Devices, Sunnyvale, Calif.) to simultaneously monitor fluorescence in all wells (Wavelength−excitation=488 nm, Wavelength−emission=510 nm) according to the manufacture's protocol. The fluorescence intensity was captured every 3 seconds for the first 3 minutes after the addition of the peptides. The results of this study are shown in Table 6, in fluorescence units.

Mucin 1 (MUC1) = test: MUC1 gene expression (RT-PCR) in human corneal epithelial equivalents; format: cell-based; settings: 200 μM; for Fold Change (MUC1:GAPDH): treatment refreshed every day, harvested end of 6th day, band density normalized against GAPDH
Procedure: Human corneal equivalents were purchased from SkinEthic Laboratories (Nice, France). Equivalents were allowed to equilibrate in SkinEthic growth medium overnight at 5% CO2, and were then treated with SLIGRL (SEQ.ID.NO.17) (200 μM), LIGR (SEQ.ID.NO.1) (200 μM) or Phosphate buffered saline (PBS) as a control. Treatment was refreshed everyday. At the end of the 6th day, equivalent samples were harvested. Total RNA was extracted from the equivalents using RNAqueous™ kit (Ambion, Austin, Tex.) according to manufacture's instructions. RNA samples were then treated with DNA-free kit (Ambion, Austin Tex.). 25 nanograms of total RNA from each sample were amplified using OneStep RT-PCR kit (Qiagen, Valencia, Calif.) according to the manufacture's instructions. PCR Primers were synthesized by Integrated DNA Technologies (Coralville, Iowa). Each RT-PCR reaction contained 30 pmol of each primer of MUC1 or 10 pmol of each primer of glyceraldehyde-3-phosphate dehydrogenase (GAPDH). Each PCR cycle consisted of denaturing for 50 seconds at 94° C., annealing for 1 minutes at 58° C., elongation for 1 minute at 72° C. The PCR products were resolved by electrophoresis in 1% agarose gel and stained with ethidium bromide. Kodak Gel logic 100 imaging system was used to take gel pictures and analyze product band density.
All sample densities were normalized against GAPDH.

PAR-2 = target: T1, PAR-2 (Rattus norvegicus, UniProt Q63645); settings: rats; Nishikawa H et al, J Pharmacol Exp Ther. 2005; cited from earlier work
T1 construct: host or cells: rats in vivo (endogenous receptor)
T1 sequence (Q63645 26-397): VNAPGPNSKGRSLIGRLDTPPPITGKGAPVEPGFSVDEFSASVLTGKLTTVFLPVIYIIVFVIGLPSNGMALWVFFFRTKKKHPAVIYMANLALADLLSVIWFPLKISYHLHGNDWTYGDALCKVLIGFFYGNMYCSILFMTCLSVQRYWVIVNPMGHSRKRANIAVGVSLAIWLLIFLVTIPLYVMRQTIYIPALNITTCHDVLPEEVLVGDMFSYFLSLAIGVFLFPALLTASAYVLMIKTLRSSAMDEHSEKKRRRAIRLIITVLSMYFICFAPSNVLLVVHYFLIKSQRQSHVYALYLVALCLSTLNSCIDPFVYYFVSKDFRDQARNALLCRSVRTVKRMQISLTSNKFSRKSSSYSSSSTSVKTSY

Question: For H2-Leu-Ile-Gly-Arg-NH2 (H-LIGR-NH2), which “COX-2:GAPDH” value (Cyclooxygenase-2 (COX-2)) is on record?
Answer: 0.275

Question: And the “Induction of inflammatory mediators (in words)” value [1]?
Answer: does not induce the secretion of inflammatory mediators; also recorded: did not induce these inflammatory mediators

Question: And the “Fold change in the secretion of inflammatory mediators: IL-6” value [1]?
Answer: 1.2

Question: And the “Fold change in the secretion of inflammatory mediators: IL-8” value [1]?
Answer: 1.0

Question: What about the “Fold change in the secretion of inflammatory mediators: PGE2” value [1] of the same substance?
Answer: 0.8

Question: What about the “Fold change in the secretion of inflammatory mediators: PGF2α” value [1] of the same substance?
Answer: 0.9

Question: And the Fluorescence intensity (HaCaT cells; 40 μM peptide)?
Answer: 628.27 fluorescence units

Question: And the Fluorescence intensity (HaCaT cells; 200 μM peptide)?
Answer: 424.315 fluorescence units

Question: What about the Fluorescence intensity (HaCaT cells; 800 μM peptide) of the same substance?
Answer: 556.105 fluorescence units

Question: What about the “Intracellular calcium mobilization (in words)” value (HaCaT cells) of the same substance?
Answer: does not induce calcium mobilization; also recorded: do not induce intracellular calcium mobilization

Question: What about the “Fold Change (MUC1:GAPDH)” value (Mucin 1 (MUC1)) of the same substance?
Answer: 2.1

Question: What about the “Induction of expression of the MUC1 gene (in words)” value (Mucin 1 (MUC1); corneal epithelial equivalents) of the same substance?
Answer: induces the expression of the mucin1 gene; also recorded: induced the expression of the MUC1 gene

Question: Which results are given for “ISLLRG (ISSLRG; SYTHETIC PEPTIDE) [the control, scrambled peptide]”?
Answer: Induction of inflammatory mediators (in words) [1]: did not induce these inflammatory mediators; Fold change in the secretion of inflammatory mediators: IL-6 [1]: 1.1; Fold change in the secretion of inflammatory mediators: IL-8 [1]: 1.0; Fold change in the secretion of inflammatory mediators: PGE2 [1]: 0.8; Fold change in the secretion of inflammatory mediators: PGF2α [1]: 1.0; Fluorescence intensity (HaCaT cells; 40 μM peptide): 535.54 fluorescence units; Fluorescence intensity (HaCaT cells; 400 μM peptide): 744.95 fluorescence units; Intracellular calcium mobilization (in words) (HaCaT cells): do not induce intracellular calcium mobilization

Question: With SLIGRL-NH2 as the substance, how does the “COX-2:GAPDH” value (Cyclooxygenase-2 (COX-2)) read?
Answer: 1.168

Question: What about the “COX-2 expression in vivo (in words)” value (Cyclooxygenase-2 (COX-2); 100 μM topical, mouse skin) of the same substance?
Answer: increased

Question: And the “Increase in the expression and secretion of several inflammatory mediators” value [1]?
Answer: 1.5-3 times

Question: And the “Fold change in the secretion of inflammatory mediators: IL-6” value [1]?
Answer: 2.7

Question: What about the “Fold change in the secretion of inflammatory mediators: IL-8” value [1] of the same substance?
Answer: 3.0

Question: What about the “Fold change in the secretion of inflammatory mediators: PGE2” value [1] of the same substance?
Answer: 2.3

Question: And the “Fold change in the secretion of inflammatory mediators: PGF2α” value [1]?
Answer: 1.5

Question: What about the Fluorescence intensity (HaCaT cells; 4 μM peptide) of the same substance?
Answer: 1386.9 fluorescence units

Question: And the Fluorescence intensity (HaCaT cells; 8 μM peptide)?
Answer: 1904.015 fluorescence units

Question: And the Fluorescence intensity (HaCaT cells; 20 μM peptide)?
Answer: 2003.095 fluorescence units

Question: What about the Fluorescence intensity (HaCaT cells; 40 μM peptide) of the same substance?
Answer: 2842.92 fluorescence units

Question: And the “Intracellular calcium mobilization (in words)” value (HaCaT cells)?
Answer: dose dependent increase

Question: And the “Fold Change (MUC1:GAPDH)” value (Mucin 1 (MUC1))?
Answer: 0.7

Question: And the “Tear secretion (in words)” value (PAR-2)?
Answer: induce Tear Secretion
